Data: patent US11225481B2 (Centre national de la recherche scientifique, priority 2015, dated 2022)
Read-outs that look alike come from different tables or passages of the source.

Tests used:
[1] = molecular target: T1, BRD2(BD1) (Homo sapiens, UniProt P25440); assay: HTRF bromodomain selectivity profile; format: binding; details: Table 3 selectivity profile
T1 construct: purchased BPS Bioscience
Method: (§1) HTRF assays were performed in white 384 Well Small Volume™ HiBase Polystyrene Microplates (Greiner) with a total working volume of 20 μL. Compounds were dispensed, with 200 nL per well (1% final DMSO), from a concentration stock of 1 mM in 100% DMSO and with serial DMSO dilutions, using a Mosquito Crystal pipetting robot platform (TTP labtech). The IC50 measurements were performed in triplicates (Table 2 and 3). All HTRF reagents were purchased from CisBio Bioassays and reconstituted according to the supplier protocols. For each assay 14.7 μL of mix 1 (protein+peptide) is added in the assay wells, containing previously dispensed inhibitors, according to the final concentration and buffer described in Table 4, using a Biomek NX MC pipetting robot (Beckman). Then, 5.1 μL of mix 2 (donnor+acceptor) is added. HTRF signals were measured, after a final incubation (overnight at room temperature), using a PHERAstar FS (BMG Labtech) with an excitation filter at 337 nm and fluorescence wavelength measurement at 620 and 665 nm, an integration delay of 60 μs and an integration time of 500 μs. Results were analyzed with a two-wavelengths signal ratio: [intensity (665 nm)/intensity (620 nm)]*10^4. Percentage of inhibition was calculated using the following equation: % inhibition=[(compound signal)−(min signal)]/[(max signal)−(min signal)]*100, where ‘max signal’ is the signal ratio with the compound vehicle alone (DMSO) and ‘min signal’ the signal ratio without peptide.
(§2) Selectivity profiles of bromodomain inhibitors were performed as described in HTRF screen section. […] HTRF detection reagents (EPIgeneous™ Binding Domain kits) were purchased from Cisbio Bioassays and used according to supplier's protocol. GST tagged bromodomain proteins were purchased from BPS Bioscience and histone peptide from Anaspec.

[2] = molecular target: T2, BRD4(BD1) (Homo sapiens, UniProt O60885); assay: HTRF assay, disruption of bromodomain/histone peptide interaction; format: binding; details: for LE (Ligand Efficiency): LE = 1.4(−log(IC50)/N), BRD4(BD1)
T2 construct: a BRD4(BD1) synthetic gene that includes a TEV cleavage site was purchased from LifeTechnology; made in house
Method: as §1
(§3) For Isothermal Titration Calorimetry (ITC) and crystallogenesis, BRD4(BD1) was produced and purified using a histidine tag affinity chromatography as described by Filipakopoulos et al.9 For these experiments, a pNIC28-BSA4 expression vector containing BRD4(BD1) and a Tobacco Etch Virus (TEV) protease cleavage site have kindly been provided by Stefan Knapp laboratory from the SGC at the University of Oxford. After size exclusion chromatography, the fractions presenting pure BRD4(BD1) after TEV cleavage of the histidine tag were pooled and concentrated to 25 mg/mL for crystallogenesis. For ITC assays, the protein was concentrated up to at 6 mg/mL and the DTT was removed using a buffer exchange column (PD10 from GE healthcare) equilibrated with 10 mM HEPES pH=7.5, 150 mM NaCl. For Homogeneous Time Resolved Fluorimetry (HTRF) experiments, a BRD4(BD1) synthetic gene that includes a TEV cleavage site was purchased from LifeTechnology in a pDONR transport vector before cloning into a pDESTTM15 expression vector for GST affinity purification. Protein production and purification was carried out using similar protocols and buffers as used for the His-BRD4(BD1) system. Purification was carried on GST affinity resin (Thermo Scientific) and reduced glutathione was used for protein release. GST-BRD4(BD1) was further purified by size exclusion chromatography on a Superdex 16/60 Hiload column (GE Healthcare) using 20 mM TRIS pH=8.0, 150 mM NaCl Buffer.

[3] = molecular target: T3, BRD3(BD1) (Homo sapiens, UniProt Q15059); assay: HTRF bromodomain selectivity profile; format: binding; details: Table 3 selectivity profile
T3 construct: purchased BPS Bioscience
Method: as §1, with “Compounds” for “HTRF assays were performed in white 384 Well Small Volume™ HiBase Polystyrene Microplates (Greiner) with a total working volume of 20 μL. Compounds”, “The IC50 measurements were performed in triplicates (Table 2 and 3).” left out, “[intensity (665 nm)/intensity (620 nm)]*10^4.” left out, “peptide. For IC50 measurements, values were normalized and fitted with Prism (GraphPad software) using the following equation: […] Selectivity profiles of bromodomain inhibitors were performed as described in HTRF screen section. […] HTRF detection reagents (EPIgeneous™ Binding Domain kits) were purchased from Cisbio Bioassays and used according to supplier's protocol. GST tagged bromodomain proteins were purchased from BPS Bioscience and histone peptide from Anaspec. [table]” for “peptide.”

[4] = system: BET bromodomains; assay: Selectivity profile across BET bromodomains (HTRF); format: binding; details: in words
Method: as §2

[5] = molecular target: T4, BRD2(BD2) (Homo sapiens, UniProt P25440); assay: HTRF bromodomain selectivity profile; format: binding; details: Table 3 selectivity profile
T4 construct: purchased BPS Bioscience
Method: as §1, §2

[6] = molecular target: T5, BRDT(BD1) (Homo sapiens, UniProt Q58F21); assay: HTRF bromodomain selectivity profile; format: binding; details: Table 3 selectivity profile
T5 construct: purchased BPS Bioscience
Method: as §1, §2

[7] = molecular target: T6, BRD4(BD2) (Homo sapiens, UniProt O60885); assay: HTRF bromodomain selectivity profile; format: binding; details: Table 3 selectivity profile
T6 construct: purchased BPS Bioscience
Method: as §1, §2

[8] = molecular target: T7, BRD3(BD2) (Homo sapiens, UniProt Q15059); assay: HTRF bromodomain selectivity profile; format: binding; details: Table 3 selectivity profile
T7 construct: purchased BPS Bioscience
Method: as §1, with “Compounds” for “HTRF assays were performed in white 384 Well Small Volume™ HiBase Polystyrene Microplates (Greiner) with a total working volume of 20 μL. Compounds”, “The IC50 measurements were performed in triplicates (Table 2 and 3).” left out, “[intensity (665 nm)/intensity (620 nm)]*10^4.” left out, “peptide. For IC50 measurements, values were normalized and fitted with Prism (GraphPad software) using the following equation: […] Selectivity profiles of bromodomain inhibitors were performed as described in HTRF screen section. […] HTRF detection reagents (EPIgeneous™ Binding Domain kits) were purchased from Cisbio Bioassays and used according to supplier's protocol. GST tagged bromodomain proteins were purchased from BPS Bioscience and histone peptide from Anaspec. [table]” for “peptide.”

[9] = molecular target: T8, ATAD2 (Homo sapiens, UniProt Q6PL18); assay: HTRF bromodomain selectivity profile, non-BET control; format: binding; details: non-BET family member bromodomain control
T8 construct: GST tagged bromodomain proteins were purchased from BPS Bioscience; purchased BPS Bioscience
T8 sequence (Q6PL18 980-1092 limits assumed): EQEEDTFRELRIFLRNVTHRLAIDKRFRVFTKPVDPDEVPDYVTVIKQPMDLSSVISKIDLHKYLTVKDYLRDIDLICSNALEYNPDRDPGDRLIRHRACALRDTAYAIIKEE
Method: as §1, §2

[10] = system: BD2 domain of BRD2 and BRD3; details: cited from earlier work
[11] = molecular target: T2, BRD4(BD1); assay: Isothermal Titration Calorimetry; format: binding
Description: as §3
ITC was used to evaluate the thermodynamics parameters of the binding between BRD4(BD1) and the selected compounds, using ITC conditions previously described by Filippakopoulos et al.8 Purified BRD4(BD1) was extensively dialyzed in the ITC buffer containing 10 mM Hepes pH=7.5 and 150 mM NaCl. Compounds were diluted directly in the last protein dialysate prior to experiments. Titrations were carried out on a MicroCal ITC200 microcalorimeter (GE Healthcare, Piscataway, N.J.). Each experiment was designed using a titrant concentration (protein in the syringe) set 10 to 15 times the analyte concentration (compound in the cell generally between 10 and 35 μM) and using 13 injections at 35° C. A first small injection (generally 0.2 μL) was included in the titration protocol in order to remove air bubbles trapped in the syringe prior titration. Raw data were scaled after setting the zero to the titration saturation heat value. Integrated raw ITC data were fitted to a one site non-linear least squares fit model using the MicroCal Origin plugin as implemented in Origin 7 (Origin Lab). Finally, ΔG and TΔS values were calculated from the fitted ΔH and KA values using the equations ΔG=−R.T. ln KA and ΔG=ΔH−TΔS.

[12] = system: acute leukemia; details: patients, phase I acute leukemia study; cited from earlier work
[13] = HTRF, Table 1′, TABLE 2, read-out: BRD4(BD1) IC50
[14] = HTRF, mean ± SD of three experiments, Table 2, read-out: IC50 μM, effect on BRD4(BD1) activity
[15] = Table 3 selectivity profile, mean ± SD of three experiments, read-out: IC50 (μM) BRD4(BD1)

T7 sequence (Q15059 306-415 limits assumed): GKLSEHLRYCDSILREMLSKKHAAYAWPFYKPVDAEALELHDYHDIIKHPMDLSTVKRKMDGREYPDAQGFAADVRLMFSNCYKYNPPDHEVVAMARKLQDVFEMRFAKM
T1 sequence (P25440 74-180 limits assumed): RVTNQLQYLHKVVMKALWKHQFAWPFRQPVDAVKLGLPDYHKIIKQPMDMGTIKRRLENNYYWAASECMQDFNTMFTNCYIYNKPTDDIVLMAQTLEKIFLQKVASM
T4 sequence (P25440 344-453 limits assumed): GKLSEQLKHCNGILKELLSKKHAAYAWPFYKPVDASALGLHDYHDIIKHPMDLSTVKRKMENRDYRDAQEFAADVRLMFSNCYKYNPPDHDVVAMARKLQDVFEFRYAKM
T3 sequence (Q15059 34-140 limits assumed): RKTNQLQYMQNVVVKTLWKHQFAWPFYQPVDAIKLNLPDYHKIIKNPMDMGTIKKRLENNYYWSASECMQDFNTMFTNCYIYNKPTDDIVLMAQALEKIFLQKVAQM

Compound | IC50 [1] | fold decrease in potency as compared to 7a ([2]; HTRF IC50 BRD4(BD1)) | IC50 [2, 13] | IC50 [2, 14] | LE (Ligand Efficiency) [2] | IC50 [2, 15] | IC50 [3] | selectivity profile among BET bromodomains [4] | IC50 [5] | IC50 [6] | IC50 [7] | IC50 [8] | IC50 [9] | bromodomain binding preference [10] | enthalpy change ([11]; ITC, BRD4(BD1)) | Kd ([11]; Isothermal Titration Calorimetry) | fold increased potency (7a vs 6a) ([2]; HTRF IC50 BRD4(BD1)) | clinical response [12]
CCn1c(CSc2n[nH]c(N)n2)nc2c1c(=O)[nH]c(=O)n2Cc1ccc(Cl)cc1 [Compound 22a, 8-(5-Amino-1H-[1,2,4]triazol-3-ylsulfanylmethyl)-3-(4-chlorobenzyl)-7-ethyl-3,7-dihydro-purine-2,6-dione] | 30 ± 0.9 µM | 10 fold | 26.4 µM | 26.4 µM | 0.17 | 26.4 ± 0.7 µM | 31.7 ± 1.1 µM | shift of selectivity towards BET-BD1 domains | – | – | – | – | – | – | – | – | – | –
Cn1cnc2c1c(=O)[nH]c(=O)n2Cc1ccc(Cl)cc1 [Compound 4b] | > 100 µM | – | – | 9 µM | – | – | 14 µM | – | 7 µM | 27 µM | 5 µM | 4 µM | – | – | – | – | – | –
CCCCn1c(=O)[nH]c(=O)c2c1ncn2CC [Compound 6a, 3-Butyl-7-ethylxanthine] | 18.8 ± 0.7 µM | – | 13 ± 0.3 µM | 13 µM | 0.40 | 13 ± 0.3 µM | 4.8 ± 0.3 µM | pan-BET inhibition profile | 6.6 ± 0.3 µM | 7.9 ± 0.4 µM | 8.1 ± 0.3 µM | 5.8 ± 0.2 µM | > 100 µM | – | – | – | – | –
COc1cc(OC)c2c(=O)[nH]c(-c3cc(C)c(OCCO)c(C)c3)nc2c1 [RVX-208, 2-[4-(2-hydroxyethoxy)-3,5-dimethylphenyl]-5,7-dimethoxy-4(3H)-quinazolinone] | – | – | – | – | – | – | – | – | – | – | – | – | – | binds preferentially to the BD2 domain of BRD2 and BRD3 | – | – | – | –
CCn1cnc2c1c(=O)[nH]c(=O)n2Cc1ccc(Cl)cc1 [Compound 7a] | 4.7 ± 0.1 µM | – | 2.6 µM | 2.6 µM | 0.37 | 2.6 ± 0.1 µM | 1.8 ± 1.1 µM | pan-BET inhibition profile | 1.6 ± 0.2 µM | 2.3 ± 0.2 µM | 1.9 ± 0.1 µM | 1.8 ± 0.2 µM | > 100 µM | – | -6.3 kcal/mol | 1.8 µM | 2 fold | –
Cc1sc2c(c1C)C(c1ccc(Cl)cc1)=N[C@@H](CC(=O)Nc1ccc(O)cc1)c1nnc(C)n1-2 [OTX015, (6S)-4-(4-chlorophenyl)-N-(4-hydroxyphenyl)-2,3,9-trimethyl-6H-thieno[3,2-f][1,2,4]triazolo[4,3-a][1,4]diazepine-6-acetamide] | – | – | – | – | – | – | – | – | – | – | – | – | – | – | – | – | – | induced remissions, including complete remission in two patients with refractory disease
CCc1cc(CC)n2nc(SCc3nc4c(c(=O)[nH]c(=O)n4Cc4ccc(Cl)cc4)n3CC)nc2n1 [Compound 26a] | 31.9 ± 0.5 µM | – | – | 7.9 µM | – | – | 43.5 ± 7.1 µM | – | 9.5 ± 0.5 µM | 42.5 ± 3.9 µM | > 100 µM | 2.1 ± 0.5 µM | 56.4 ± 7.9 µM | – | – | – | – | –
CCn1c(CSc2nc3nc(C)cc(C)n3n2)nc2c1c(=O)[nH]c(=O)n2Cc1ccc(Cl)cc1 [Compound 25a] | 30.1 ± 1.3 µM | – | – | 12.6 µM | – | – | 40.7 ± 2.2 µM | – | > 100 µM | 65.3 ± 8.1 µM | > 100 µM | 23.9 ± 1.4 µM | > 100 µM | – | – | – | – | –
